Where two headings read alike, the source gives them in different places.

What is called IC50 is the concentration at which inhibition is half-maximal.

The target in this test is T1, P2X7 receptor (Homo sapiens, UniProt Q99572).
T1 construct: host or cells: THP-1 cells differentiated with LPS and IFN-γ
T1 sequence (Q99572 1-595): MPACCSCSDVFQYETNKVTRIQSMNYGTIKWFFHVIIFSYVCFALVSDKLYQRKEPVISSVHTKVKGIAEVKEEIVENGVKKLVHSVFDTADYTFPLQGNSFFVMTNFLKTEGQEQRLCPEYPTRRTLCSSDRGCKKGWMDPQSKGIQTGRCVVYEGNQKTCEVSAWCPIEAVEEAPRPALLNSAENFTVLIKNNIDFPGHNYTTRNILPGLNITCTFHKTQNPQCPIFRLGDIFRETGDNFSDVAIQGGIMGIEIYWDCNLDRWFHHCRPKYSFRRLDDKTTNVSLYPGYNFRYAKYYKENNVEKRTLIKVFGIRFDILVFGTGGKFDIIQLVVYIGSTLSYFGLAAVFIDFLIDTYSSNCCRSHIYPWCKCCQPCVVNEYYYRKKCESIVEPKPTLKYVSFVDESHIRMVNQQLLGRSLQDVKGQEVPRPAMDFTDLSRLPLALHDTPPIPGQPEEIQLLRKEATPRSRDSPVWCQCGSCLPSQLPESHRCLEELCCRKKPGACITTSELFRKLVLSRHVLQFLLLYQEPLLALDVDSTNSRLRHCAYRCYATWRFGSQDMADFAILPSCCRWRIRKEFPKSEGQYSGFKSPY
Nature of the test: IL-1β release assay in differentiated THP-1 cells stimulated with BzATP (Example 9). The class given is cell-based. Also on record: inhibition: dose or concentration left out as unconfirmed. To be noted: for inhibition at 0.3 µM: 0.3 μM compound, read-out: IL-1β % Inhib. @ 0.3 μM; for inhibition at 0.3 µM / inhibition at 0.1 µM: differentiated THP-1 cells, BzATP 250 uM; for IC50: THP-1 cells, BzATP-stimulated IL-1β release, four parameter logistic fit; for inhibition: THP-1, read-out: IL-1β % Inhib.; for inhibition at 0.1 µM: 0.1 μM compound. An outline of the steps: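 IC50 derived by four-parameter logistic fit of percent inhibition of IL-1β release, measured by ELISA after 45 min stimulation with 250 uM BzATP. Cells: THP-1 differentiated 16 h with 100 ng/mL LPS plus IFN-γ, LPS-primed 2 h, compound added 30 min beforehand.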

Setting [1] is: symbols * to ****, read-out: IL-1β % Inhib. (asterisk symbols: at 0.1 μM).

`CC(=O)OCCn1ccc2c(NC(=O)Cc3ccc(Cl)c(C(F)(F)F)c3)cccc2c1=O` [Compound 1380, Acetic acid 2-{5-[2-(4-chloro-3-trifluoromethyl-phenyl)-acetylamino]-1-oxo-1H-isoquinolin-2-yl}-ethyl ester] came in with an IC50 of 5.33 nM. Further, the inhibition at 0.3 µM (symbols + to ++++) is ≥ 76%. On to `CCOc1ccc(CC(=O)Nc2cccc3c(=O)n(CCN4CCOCC4)ccc23)cc1` [Compound 1213], for which the inhibition at 0.3 µM (symbols + to ++++) lay in the range of 0 to 25%. `CC(C)(C)OC(=O)N1CCC[C@@H]1Cn1ccc2c(NC(=O)Cc3ccc(Cl)c(C(F)(F)F)c3)cccc2c1=O` [Compound 1620] had an IC50 of 41.1 nM. Also, the inhibition at 0.3 µM ("+" class symbols) was ≥ 76%. Turning to `Cc1ccccc1C(=O)Nc1cccc2c(=O)n(CC(C)(C)C)ccc12` [Compound 1413], the inhibition lay within 0 to 25%.

`COc1ccc(CC(=O)Nc2cccc3c(=O)n(Cc4cccnc4)ccc23)cc1OC` [Compound 1354]: the inhibition at 0.3 µM (symbols + to ++++) lay within 0 to 25%. On to `COCCn1ccc2c(NC(=O)CCc3ccc(C)cc3C)cccc2c1=O` [Compound 1341], for which the inhibition at 0.3 µM (symbols + to ++++) lay within 0 to 25%.

`Cc1cc(C(=O)Nc2cccc3c(=O)n(CC(C)(C)C)ccc23)ccc1Cl` [Compound 1056]: the inhibition at 0.3 µM ('+' class symbols) is 0 to 25%. Turning to `CCOc1ccc(CC(=O)Nc2cccc3c(=O)n(CCOC)ccc23)cc1` [Compound 1317], the inhibition at 0.3 µM (symbols + to ++++) fell in the range of 0 to 25%. For `Cc1cccc(C(=O)Nc2cccc3c(=O)n(Cc4ccc(OC(F)(F)F)cc4)ccc23)c1C` [Compound 1563], the inhibition was 0 to 25%.

With `CC(C(=O)Nc1cccc2c(=O)n(Cc3cccnc3)ccc12)c1ccccc1` (stereo not shown) [Compound 1347], the inhibition at 0.1 µM under setting [1] lay within 26 to 50%. With `COCCn1ccc2c(NC(=O)c3ccc(C)c(Cl)c3)cccc2c1=O` [Compound 1324], for the setting “symbols + to ++++”, the inhibition at 0.3 µM was in the range of 26 to 50%. Consider `Cc1cc(Cl)ccc1C(=O)Nc1cccc2c(=O)n(Cc3cccnc3)ccc12` [Compound 1452], for which the inhibition fell in the range of 0 to 25%. Turning to `Cc1ccc(CC(=O)Nc2cccc3c(=O)n(CC(C)(C)C)ccc23)cc1` [Compound 1262], the inhibition at 0.3 µM (symbols + to ++++) was in the range of 0 to 25%.

For the compound `CC(=O)OCCn1ccc2c(NC(=O)CCc3cc(C(F)(F)F)cc(C(F)(F)F)c3)cccc2c1=O` [Compound 1376], the IC50 is 731 nM. Under “symbols + to ++++”, the inhibition at 0.3 µM was in the range of 0 to 25%.

As for `Cc1cccc(C(=O)Nc2cccc3c(=O)n(CCN4CCOCC4)ccc23)c1C` [Compound 1192], the inhibition at 0.3 µM ('+' class symbols) lay in the range of 26 to 50%. For the compound `Cc1cc(Cl)ccc1C(=O)Nc1cccc2c(=O)n(CC3CCOCC3)ccc12` [Compound 1114], under “'+' class symbols”, the inhibition at 0.3 µM was in the range of 0 to 25%. Consider `Cc1cccc(CCC(=O)Nc2cccc3c(=O)n(CC4CCN(C)CC4)ccc23)c1` [Compound 1488], for which the inhibition lay in the range of 0 to 25%. Turning to `Cc1cccc(C(=O)Nc2cccc3c(=O)n(CCN(C)C)ccc23)c1C` [Compound 1140], the inhibition at 0.3 µM ('+' class symbols) was in the range of 0 to 25%.

Regarding `Cc1ccc(Cl)c(C(=O)Nc2cccc3c(=O)n(CCCN4CCCC4=O)ccc23)c1` [Compound 1540], the inhibition was 0 to 25%. In turn, `COCCn1ccc2c(NC(=O)Cc3ccc(Cl)c(Cl)c3)cccc2c1=O` [Compound 1392] showed an IC50 of 123 nM. For the same compound, the inhibition at 0.3 µM (symbols + to ++++) lay in the range of 51 to 75%. `CC(c1ccccn1)n1ccc2c(NC(=O)Cc3ccc(C(F)(F)F)cc3)cccc2c1=O` (stereo not shown) [Compound 1634] yielded a 50% inhibitory concentration (IC50) of 262 nM. Moreover, the inhibition at 0.3 µM ("+" class symbols) fell in the range of 51 to 75%. With `CC(C)(C)Cn1ccc2c(NC(=O)c3ccc(C(C)(C)C)cc3)cccc2c1=O` [Compound 1416], the inhibition lay within 0 to 25%. The same measure, in the same setting: in the case of `CN1CCC(Cn2ccc3c(NC(=O)c4ccc5c(c4)OCCCO5)cccc3c2=O)CC1` [Compound 1480] it was 0 to 25%. In the case of `O=C(Cc1ccc2c(c1)OCO2)Nc1cccc2c(=O)n(CCCN3CCCC3=O)ccc12` [Compound 1527], the inhibition lay within 0 to 25%. With `O=C(Cc1ccccc1Cl)Nc1cccc2c(=O)n(CCCN3CCCC3=O)ccc12` [Compound 1519], the inhibition fell in the range of 0 to 25%. Consider `COc1cc(CC(=O)Nc2cccc3c(=O)n(CCN4CCOCC4)ccc23)cc(OC)c1` [Compound 1218], for which, where the note is “symbols + to ++++”, the inhibition at 0.3 µM was 26 to 50%.

With `Cc1ccccc1C(=O)Nc1cccc2c(=O)n(CCN3CCOCC3)ccc12` [Compound 1191], where the note is “'+' class symbols”, the inhibition at 0.3 µM lay within 0 to 25%. As to `COCCn1ccc2c(NC(=O)c3cc4ccccc4o3)cccc2c1=O` [Compound 1320], the inhibition at 0.3 µM (symbols + to ++++) lay in the range of 0 to 25%.

`O=C(CC1CCCCCC1)Nc1cccc2c(=O)n(CC3CCOCC3)ccc12` [Compound 1373, 2-Cycloheptyl-N-[1-oxo-2-(tetrahydro-pyran-4-ylmethyl)-1,2-dihydro-isoquinolin-5-yl]-acetamide]: the IC50 amounted to 72.1 nM. The inhibition at 0.3 µM (symbols + to ++++) is ≥ 76%. Turning to `CCOc1ccc(C(=O)Nc2cccc3c(=O)n(Cc4cccnc4)ccc23)c(O)c1` [Compound 1072], the inhibition at 0.3 µM ('+' class symbols) fell in the range of 0 to 25%. Regarding `Cc1ccccc1C(=O)Nc1cccc2c(=O)n(Cc3ccc(OC(F)(F)F)cc3)ccc12` [Compound 1562], the inhibition lay within 0 to 25%. As to `CCOc1ccc(C(=O)Nc2cccc3c(=O)n(CC4CCOCC4)ccc23)cc1` [Compound 1091], the inhibition at 0.3 µM ('+' class symbols) lay in the range of 0 to 25%.

For `CCOc1ccc(CC(=O)Nc2cccc3c(=O)n(CCN(C)C)ccc23)cc1` [Compound 1160], for the setting “'+' class symbols”, the inhibition at 0.3 µM lay within 0 to 25%. As to `COCCn1ccc2c(NC(=O)c3ccc4c(c3)OCCCO4)cccc2c1=O` [Compound 1328], the inhibition at 0.3 µM (symbols + to ++++) was 0 to 25%. As for `CN(C)CCn1ccc2c(NC(=O)Cc3ccc(Cl)cc3C(F)(F)F)cccc2c1=O` [Compound 1611], half-maximal inhibition (IC50) required 930 nM. Further, the inhibition at 0.3 µM ("+" class symbols) was in the range of 0 to 25%.

For `Cc1ccccc1CCC(=O)Nc1cccc2c(=O)n(CCN3CCOCC3)ccc12` [Compound 1404], the inhibition lay within 0 to 25%. On the same count and under the same terms, in the case of `O=C(Nc1cccc2c(=O)n(CCCN3CCCC3=O)ccc12)c1ccc(-c2ccccc2)cc1` [Compound 1515] it was 0 to 25%.

For `O=C(Cc1ccc2c(c1)OCO2)Nc1cccc2c(=O)n(CC3CCOCC3)ccc12` [Compound 1110], under “'+' class symbols”, the inhibition at 0.3 µM fell in the range of 0 to 25%.

On to `COCCn1ccc2c(NC(=O)c3cccc(Cl)c3C)cccc2c1=O` [Compound 1330], for which the inhibition at 0.3 µM (symbols + to ++++) is 0 to 25%. On to `COc1ccc(CCC(=O)Nc2cccc3c(=O)n(CCN(C)C)ccc23)cc1` [Compound 1150], for which the inhibition at 0.3 µM ('+' class symbols) was 0 to 25%. In turn, `Cc1ccc(CCC(=O)Nc2cccc3c(=O)n(CCN(C)C)ccc23)cc1` [Compound 1002] had an IC50 of 72.3 nM. Moreover, where the note is “'+' class symbols”, the inhibition at 0.3 µM is ≥ 76%. Take `COCCn1ccc2c(NC(=O)Cc3ccc(OC)c(OC)c3)cccc2c1=O` [Compound 1314]: the inhibition at 0.3 µM (symbols + to ++++) fell in the range of 0 to 25%. Regarding `COc1cc(CC(=O)Nc2cccc3c(=O)n(CC(C)(C)C)ccc23)cc(OC)c1` [Compound 1266], where the note is “symbols + to ++++”, the inhibition at 0.3 µM fell in the range of 0 to 25%. Consider `O=C(Nc1cccc2c(=O)n(CCCN3CCCC3=O)ccc12)c1cc(Cl)cc(Cl)c1` [Compound 1511], for which the inhibition was in the range of 0 to 25%.

Turning to `Cc1cc(C(=O)Nc2cccc3c(=O)n(CCCN4CCCC4=O)ccc23)ccc1Cl` [Compound 1503], the inhibition fell in the range of 0 to 25%. In the case of `Cc1cccc(C(=O)Nc2cccc3c(=O)n(CCCN4CCCC4=O)ccc23)c1` [Compound 1513], the inhibition fell in the range of 0 to 25%. Regarding `COCCn1ccc2c(NC(=O)Cc3cc(C)ccc3C)cccc2c1=O` [Compound 1066], where the note is “'+' class symbols”, the inhibition at 0.3 µM lay within 0 to 25%. On to `CCOc1ccc(C(=O)Nc2cccc3c(=O)n(CCN(C)C)ccc23)cc1` [Compound 1146], for which the inhibition at 0.1 µM ('*' class symbols, read-out: IL-1β % Inhib. (asterisk classes, 0.1 μM)) is 0 to 25%. Take `COCCn1ccc2c(NC(=O)Cc3cc(OC)ccc3OC)cccc2c1=O` [Compound 1313]: under setting [1], the inhibition at 0.1 µM is 0 to 25%.

Regarding `CCOc1ccc(C(=O)Nc2cccc3c(=O)n(CCN4CCOCC4)ccc23)cc1` [Compound 1198], under setting [1], the inhibition at 0.1 µM lay within 0 to 25%.

For the compound `CN(C)CCn1ccc2c(NC(=O)Cc3ccc(F)cc3)cccc2c1=O` [Compound 1018], the half-inhibitory concentration (IC50) is > 1000 nM. Besides, the inhibition at 0.3 µM ('+' class symbols) was in the range of 0 to 25%. As for `Cc1ccccc1C(=O)Nc1cccc2c(=O)n(CCCN3CCCC3=O)ccc12` [Compound 1507], the inhibition lay in the range of 0 to 25%. For `O=C(CCc1ccc2c(c1)OCO2)Nc1cccc2c(=O)n(CCN3CCOCC3)ccc12` [Compound 1046], the inhibition at 0.3 µM ('+' class symbols) was 0 to 25%. On to `COc1cccc(CCC(=O)Nc2cccc3c(=O)n(CC4CCN(C)CC4)ccc23)c1` [Compound 1459], for which the inhibition is 26 to 50%.

`COc1cc(CC(=O)Nc2cccc3c(=O)n(CCN(C)C)ccc23)cc(OC)c1` [Compound 1164]: where the note is “'+' class symbols”, the inhibition at 0.3 µM was in the range of 0 to 25%.

The record behind these values is patent US8546579B2, “Bicycloheteroaryl compounds as P2X7 modulators and uses thereof” (Evotec (US) Inc., priority 2006, dated 2013).
